These compounds were tested on miRNA (assay: Pre and post microRNA profiles of patients after spine injections of rate limiters). Details: spine injections in patients; pre vs post miRNA profiles.
Format: in vivo, human

Structure (SMILES) | Impact on genome using spine injections
[Zn] [Zinc] | Decrease all miRNA except miR-486
N[C@@H](CS)C(=O)O [Cysteine] | Increases ail miRNA
[Mg+2] [Magnesium] | Increases all miRNA
[Se] [Selenium] | Increases ail miRNA
N[C@@H](CCC(=O)N[C@@H](CS)C(=O)NCC(=O)O)C(=O)O [Glutathione] | Decrease all miRNA

Same assay, conditions: spine injections; all other miRNA levels lowered

Structure (SMILES) | miR-486 level, pre-treatment vs post-treatment profile
[Zn] [Zinc] | miR-486 had increased

— patent US11414663B2, “Micro-RNA profiling, compositions, and methods of treating diseases” (GOWEY RESEARCH GROUP, PLLC, priority 2010, dated 2022)
